Results from article PMC12102759 (Protein Science : A Publication of the Protein Society, 2025).
Read-outs that look alike come from different tables or passages of the source.

System: PABPC1 PABC
Format: binding, human
Settings: DMS-BM library, bait PABPC1 PABC, row aa = residue at this position; for DMS-derived PSSM value, position P4 / DMS-derived PSSM value, position P11 / DMS-derived PSSM value, position P13 / DMS-derived PSSM value (averaged), position P4 / DMS-derived PSSM value (averaged), position P11: P = wild type; for DMS-derived PSSM value, position T1: T = wild type
[1] = prey ATXN2, peptide TLNPNAKEFNPRSFSQ
[2] = prey ATXN2, peptide KSTLNPNAKEFNPRSF, K = wild type
[3] = prey ATXN2, peptide KSTLNPNAKEFNPRSF
[4] = prey ATXN2, TLNPNAKEFNPRSF(averaged) over the two overlapping peptides, R = wild type
[5] = prey ATXN2, peptide KSTLNPNAKEFNPRSF, S = wild type
[6] = prey ATXN2, peptide TLNPNAKEFNPRSFSQ, N = wild type
[7] = prey ATXN2, TLNPNAKEFNPRSF(averaged) over the two overlapping peptides, S = wild type
[8] = prey ATXN2, peptide KSTLNPNAKEFNPRSF, E = wild type
[9] = prey ATXN2, peptide KSTLNPNAKEFNPRSF, L = wild type
[10] = prey ATXN2, peptide KSTLNPNAKEFNPRSF, N = wild type
[11] = prey ATXN2, TLNPNAKEFNPRSF(averaged) over the two overlapping peptides, F = wild type
[12] = prey ATXN2, TLNPNAKEFNPRSF(averaged) over the two overlapping peptides, N = wild type
[13] = prey ATXN2, TLNPNAKEFNPRSF(averaged) over the two overlapping peptides
[14] = prey ATXN2, peptide TLNPNAKEFNPRSFSQ, S = wild type
[15] = prey ATXN2, peptide TLNPNAKEFNPRSFSQ, E = wild type

TLNPNAKEFNPRSFSQ P4N (TLNNNAKEFNPRSFSQ)
DMS-derived PSSM value, position P4 [1]: 0.001049

TLNPNAKEFNPRSFSQ P11K (TLNPNAKEFNKRSFSQ)
DMS-derived PSSM value, position P11 [1]: 0

KSTLNPNAKEFNPRSF K9F (KSTLNPNAFEFNPRSF)
DMS-derived PSSM value, position K9 [2]: 0.02411

KSTLNPNAKEFNPRSF P13L (KSTLNPNAKEFNLRSF)
DMS-derived PSSM value, position P13 [3]: 0.006424

TLNPNAKEFNPRSF(averaged) R12F (TLNPNAKEFNPFSF)
DMS-derived PSSM value (averaged), position R12 [4]: 0.0319

KSTLNPNAKEFNPRSF F11Y (KSTLNPNAKEYNPRSF)
DMS-derived PSSM value, position F11 (prey ATXN2, peptide KSTLNPNAKEFNPRSF, F = wild type): 0.3016

KSTLNPNAKEFNPRSF S2F (KFTLNPNAKEFNPRSF)
DMS-derived PSSM value, position S2 [5]: 0.06555

TLNPNAKEFNPRSFSQ N5R (TLNPRAKEFNPRSFSQ)
DMS-derived PSSM value, position N5 [6]: 0.004201

TLNPNAKEFNPRSF(averaged) S13M (TLNPNAKEFNPRMF)
DMS-derived PSSM value (averaged), position S13 [7]: 0.01383

KSTLNPNAKEFNPRSF E10A (KSTLNPNAKAFNPRSF)
DMS-derived PSSM value, position E10 [8]: 0.002857

KSTLNPNAKEFNPRSF K9W (KSTLNPNAWEFNPRSF)
DMS-derived PSSM value, position K9 [2]: 0.002107

TLNPNAKEFNPRSFSQ A6Y (TLNPNYKEFNPRSFSQ)
DMS-derived PSSM value, position A6 (prey ATXN2, peptide TLNPNAKEFNPRSFSQ, A = wild type): 0

TLNPNAKEFNPRSF(averaged) K7Y (TLNPNAYEFNPRSF)
DMS-derived PSSM value (averaged), position K7 (prey ATXN2, TLNPNAKEFNPRSF(averaged) over the two overlapping peptides, K = wild type): 0.2476

KSTLNPNAKEFNPRSF P13S (KSTLNPNAKEFNSRSF)
DMS-derived PSSM value, position P13 [3]: 0.02375

KSTLNPNAKEFNPRSF L4Q (KSTQNPNAKEFNPRSF)
DMS-derived PSSM value, position L4 [9]: 0

TLNPNAKEFNPRSFSQ N5W (TLNPWAKEFNPRSFSQ)
DMS-derived PSSM value, position N5 [6]: 0.001259

TLNPNAKEFNPRSFSQ P11A (TLNPNAKEFNARSFSQ)
DMS-derived PSSM value, position P11 [1]: 0.0003099

KSTLNPNAKEFNPRSF A8E (KSTLNPNEKEFNPRSF)
DMS-derived PSSM value, position A8 (prey ATXN2, peptide KSTLNPNAKEFNPRSF, A = wild type): 0

TLNPNAKEFNPRSFSQ N5T (TLNPTAKEFNPRSFSQ)
DMS-derived PSSM value, position N5 [6]: 0.0193

KSTLNPNAKEFNPRSF N5W (KSTLWPNAKEFNPRSF)
DMS-derived PSSM value, position N5 [10]: 0

KSTLNPNAKEFNPRSF N7S (KSTLNPSAKEFNPRSF)
DMS-derived PSSM value, position N7 [10]: 0.04398

KSTLNPNAKEFNPRSF L4A (KSTANPNAKEFNPRSF)
DMS-derived PSSM value, position L4 [9]: 0

TLNPNAKEFNPRSFSQ N5I (TLNPIAKEFNPRSFSQ)
DMS-derived PSSM value, position N5 [6]: 0.01004

TLNPNAKEFNPRSF(averaged) A6N (TLNPNNKEFNPRSF)
DMS-derived PSSM value (averaged), position A6 (prey ATXN2, TLNPNAKEFNPRSF(averaged) over the two overlapping peptides, A = wild type): 0

KSTLNPNAKEFNPRSF K9I (KSTLNPNAIEFNPRSF)
DMS-derived PSSM value, position K9 [2]: 0.4039

TLNPNAKEFNPRSF(averaged) F14M (TLNPNAKEFNPRSM)
DMS-derived PSSM value (averaged), position F14 [11]: 0.1425

TLNPNAKEFNPRSF(averaged) E8N (TLNPNAKNFNPRSF)
DMS-derived PSSM value (averaged), position E8 (prey ATXN2, TLNPNAKEFNPRSF(averaged) over the two overlapping peptides, E = wild type): 0.07264

TLNPNAKEFNPRSF(averaged) L2P (TPNPNAKEFNPRSF)
DMS-derived PSSM value (averaged), position L2 (prey ATXN2, TLNPNAKEFNPRSF(averaged) over the two overlapping peptides, L = wild type): 0.01878

TLNPNAKEFNPRSFSQ N3D (TLDPNAKEFNPRSFSQ)
DMS-derived PSSM value, position N3 [6]: 0.1652

KSTLNPNAKEFNPRSF E10F (KSTLNPNAKFFNPRSF)
DMS-derived PSSM value, position E10 [8]: 0

KSTLNPNAKEFNPRSF N7F (KSTLNPFAKEFNPRSF)
DMS-derived PSSM value, position N7 [10]: 0.07049

TLNPNAKEFNPRSF(averaged) N5Y (TLNPYAKEFNPRSF)
DMS-derived PSSM value (averaged), position N5 [12]: 0.004226

KSTLNPNAKEFNPRSF K9N (KSTLNPNANEFNPRSF)
DMS-derived PSSM value, position K9 [2]: 0.1194

TLNPNAKEFNPRSF(averaged) P4M (TLNMNAKEFNPRSF)
DMS-derived PSSM value (averaged), position P4 [13]: 0.0005819

TLNPNAKEFNPRSFSQ K7T (TLNPNATEFNPRSFSQ)
DMS-derived PSSM value, position K7 (prey ATXN2, peptide TLNPNAKEFNPRSFSQ, K = wild type): 0.006845

TLNPNAKEFNPRSFSQ N10G (TLNPNAKEFGPRSFSQ)
DMS-derived PSSM value, position N10 [6]: 0.01946

TLNPNAKEFNPRSFSQ S15R (TLNPNAKEFNPRSFRQ)
DMS-derived PSSM value, position S15 [14]: 0.01068

TLNPNAKEFNPRSF(averaged) N3K (TLKPNAKEFNPRSF)
DMS-derived PSSM value (averaged), position N3 [12]: 0

KSTLNPNAKEFNPRSF S2Y (KYTLNPNAKEFNPRSF)
DMS-derived PSSM value, position S2 [5]: 0.2105

KSTLNPNAKEFNPRSF N12F (KSTLNPNAKEFFPRSF)
DMS-derived PSSM value, position N12 [10]: 0.05323

KSTLNPNAKEFNPRSF E10N (KSTLNPNAKNFNPRSF)
DMS-derived PSSM value, position E10 [8]: 0.01939

KSTLNPNAKEFNPRSF R14M (KSTLNPNAKEFNPMSF)
DMS-derived PSSM value, position R14 (prey ATXN2, peptide KSTLNPNAKEFNPRSF, R = wild type): 0.00585

TLNPNAKEFNPRSFSQ P4W (TLNWNAKEFNPRSFSQ)
DMS-derived PSSM value, position P4 [1]: 0

TLNPNAKEFNPRSFSQ E8P (TLNPNAKPFNPRSFSQ)
DMS-derived PSSM value, position E8 [15]: 0.2652

TLNPNAKEFNPRSFSQ E8K (TLNPNAKKFNPRSFSQ)
DMS-derived PSSM value, position E8 [15]: 0

TLNPNAKEFNPRSF(averaged) S13D (TLNPNAKEFNPRDF)
DMS-derived PSSM value (averaged), position S13 [7]: 0.02964

TLNPNAKEFNPRSFSQ N3L (TLLPNAKEFNPRSFSQ)
DMS-derived PSSM value, position N3 [6]: 0

TLNPNAKEFNPRSF(averaged) R12W (TLNPNAKEFNPWSF)
DMS-derived PSSM value (averaged), position R12 [4]: 0.09752

KSTLNPNAKEFNPRSF N5D (KSTLDPNAKEFNPRSF)
DMS-derived PSSM value, position N5 [10]: 0

KSTLNPNAKEFNPRSF N12H (KSTLNPNAKEFHPRSF)
DMS-derived PSSM value, position N12 [10]: 0.04066

TLNPNAKEFNPRSF(averaged) P11W (TLNPNAKEFNWRSF)
DMS-derived PSSM value (averaged), position P11 [13]: 0.01933

KSTLNPNAKEFNPRSF P13G (KSTLNPNAKEFNGRSF)
DMS-derived PSSM value, position P13 [3]: 0.05991

TLNPNAKEFNPRSFSQ N3W (TLWPNAKEFNPRSFSQ)
DMS-derived PSSM value, position N3 [6]: 0

TLNPNAKEFNPRSF(averaged) F9Y (TLNPNAKEYNPRSF)
DMS-derived PSSM value (averaged), position F9 [11]: 0.1609

TLNPNAKEFNPRSF(averaged) S13A (TLNPNAKEFNPRAF)
DMS-derived PSSM value (averaged), position S13 [7]: 0.1254

TLNPNAKEFNPRSF(averaged) F9L (TLNPNAKELNPRSF)
DMS-derived PSSM value (averaged), position F9 [11]: 0

TLNPNAKEFNPRSF(averaged) N5E (TLNPEAKEFNPRSF)
DMS-derived PSSM value (averaged), position N5 [12]: 0.01598

TLNPNAKEFNPRSF(averaged) F14V (TLNPNAKEFNPRSV)
DMS-derived PSSM value (averaged), position F14 [11]: 0.12

TLNPNAKEFNPRSF(averaged) P11D (TLNPNAKEFNDRSF)
DMS-derived PSSM value (averaged), position P11 [13]: 0.002991

TLNPNAKEFNPRSFSQ N5K (TLNPKAKEFNPRSFSQ)
DMS-derived PSSM value, position N5 [6]: 0.01257

TLNPNAKEFNPRSF(averaged) R12I (TLNPNAKEFNPISF)
DMS-derived PSSM value (averaged), position R12 [4]: 0.04426

TLNPNAKEFNPRSFSQ S15L (TLNPNAKEFNPRSFLQ)
DMS-derived PSSM value, position S15 [14]: 0.001672

TLNPNAKEFNPRSFSQ S13V (TLNPNAKEFNPRVFSQ)
DMS-derived PSSM value, position S13 [14]: 0.02255

TLNPNAKEFNPRSFSQ F14S (TLNPNAKEFNPRSSSQ)
DMS-derived PSSM value, position F14 (prey ATXN2, peptide TLNPNAKEFNPRSFSQ, F = wild type): 0.004424

TLNPNAKEFNPRSF(averaged) N10R (TLNPNAKEFRPRSF)
DMS-derived PSSM value (averaged), position N10 [12]: 0.02307

TLNPNAKEFNPRSFSQ T1P (PLNPNAKEFNPRSFSQ)
DMS-derived PSSM value, position T1 [1]: 0.04902

TLNPNAKEFNPRSFSQ T1V (VLNPNAKEFNPRSFSQ)
DMS-derived PSSM value, position T1 [1]: 0.03168

TLNPNAKEFNPRSF(averaged) P4H (TLNHNAKEFNPRSF)
DMS-derived PSSM value (averaged), position P4 [13]: 0.02342
